Reference: patent publication EP0324328B1, “Use of the N-n-butyl derivative of desoxynojirimycin in the manufacture of a medicament inhibiting HIV-Virus” (priority 1987, dated 1989)

Key:
[1] = test system: B16-F10 murine melanoma cells; experiment: Incorporation of radiolabeled galactose, mannose, glucose and thymidine into cells; assay type: cell-based; details: result in words; for galactose incorporation into the cells: radiolabeled galactose; for glucose utilization/inhibition: radiolabeled glucose; for mannose utilization: radiolabeled mannose
HIV-2 = experiment: Virus titer (TCID) of HIV-2 infected T-cell cultures grown with test compound; assay type: cell-based; details: control 10^6; for HIV-2 (TCID): Table 2, 0.10 mg/ml, 10^4 T-45 or MOLT-4 cells (identical results), 10^4 TCID inoculum, after day 10; for VIRUS TITER HIV-2: Table 3, Example 2, 0.1 mg/ml, T-45 and MOLT-4 cells, 10^4 TCID on 10^4 cells
Method: (§1) Cell free suspensions of the HIV were prepared from infected cultures. The concentration of infectious particles was estimated on end-point titration assay using serial ten-fold dilutions. The approximate number of infectious particles in each preparation was determined by the highest dilution which contains infectious HIV as determined by synctial formation, cytopathicity [Leonard et al., Proc. Natl. Acad. Sci. USA 85, 3570-3574 (1988); Barre-Sinoussi et al., Science 220, 868-870 (1983)] and HIV antigen [Karpas et al., Lancet 1, 695-697 (1985)] synthesis after 10 days of culture with 10^4 T-cells. This represents the concentration of infectious particles, herein defined as the tissue culture infectious dose (TCID).
The assay was run in 96 well plastic microtiter plates in which 0.2 ml of culture medium containing 10^4 T-cells are seeded into each well. RPMI-1640 supplemented with 10% fetal calf serum was used as the culture medium. In each assay, 6 wells are used. Three (1-3) are infected with 10^4 TCID/well of HIV-1 or HIV-2 and to the other three (4-6) culture medium alone is added. Medium is changed at the same intervals for each test compound. The detailed assay procedure is illustrated in Figures 1 and 2.
(§2) The efficacy of the test compounds used in this example was assessed as follows: 0.2 ml of culture medium containing 10^4 T-45 cells were transferred into each well of a 96-well flat-bottomed tissue-culture plastic plate and the cells were allowed to settle at 37°C (see Figure 1). After 4 hours the media were aspirated and replaced with media which contained the test compound. Following overnight incubation the media was aspirated and 10^4 TCID of virus (HIV-1 or HIV-2) was added to each well. Incubation was continued at 37°C in 5% CO2 for 1 hour. Thereafter, growth media containing the various compounds were added and incubation at 37°C was continued. On the fourth day the cell suspensions from each well were split and seeded into two new wells and 0.2 ml of fresh media with compounds was added. This was repeated on the seventh day. Cells were examined by microscopy during days 1 to 10 for the presence of syncytia, growth rate and the appearance of the cytopathic effect (CPE) (giant cells, pycnotic nuclei, loss of refractility). CPE (100%) was defined as no round, refractile, uniform cells remaining; only giant, ballooned pyknotic cells were present. The viability of HIV infected cultures was determined by a rough count/estimate of cells which underwent CPE in relation to round refractile uniform (normal) cells in a given culture. Cells in wells which were incubated with compounds which appeared to inhibit or reduce HIV replication and in which there was marked cell proliferation were either transferred to larger wells (of a 24-well plate) or divided in order to maintain an approximate constant cell density to promote continuous cell division.
That is, HIV-1 was first passaged in T-45 cells; likewise, HIV-1 was first passaged in MOLT-4 cells. The same passaging was done with HIV-2. The test compounds were used at a concentration of 0.1 mg/ml. 10^4 TCID of HIV-1 and separately of HIV-2 were used to infect 10^4 cells. Upon completion of the test, the virus titers were as follows: TABLE 3

HIV = experiment: TCID titre of culture supernatants of T-45 cells infected with HIV, Fig. 4; assay type: cell-based; details: for reduction of TCID titre of culture supernatants: T-45 cells infected with HIV, after 10 days in culture, result in words; for reduction of the virus titer / yield of infectious HIV: at non-cytotoxic concentrations
Method: FIG. 4 is a graphical representation in which the viral titer (determined as TCID) is plotted against the concentration in mg/ml of various of the test compounds (drugs) of FIG. 3 in panels (a) and (b).
as §1, §2
Quantitative data on the effect of the various compounds on the non-infected cells (cytotoxicity) was obtained by comparison of their growth rate to control cells not exposed to drugs (Table 1). Fig. 4 and Table 2 show the relation between the TCID titre of culture supernatants of T-45 cells infected with HIV after 10 days in culture and the concentration of drug. […] The inability of any of these drugs alone to totally reduce the TCID may be due to heterogeneity of virus production or spread. […] In addition, the MOLT-4 cell line was also used.

glucosidase I = molecular target: T1, glucosidase I (Bos taurus, UniProt A0A3Q1M9D9); details: reported by Schweden et al., Arch. Biochem. Biophys. 248(1), 335-340 (1986); cited from earlier work
T1 sequence (A0A3Q1M9D9 1-839): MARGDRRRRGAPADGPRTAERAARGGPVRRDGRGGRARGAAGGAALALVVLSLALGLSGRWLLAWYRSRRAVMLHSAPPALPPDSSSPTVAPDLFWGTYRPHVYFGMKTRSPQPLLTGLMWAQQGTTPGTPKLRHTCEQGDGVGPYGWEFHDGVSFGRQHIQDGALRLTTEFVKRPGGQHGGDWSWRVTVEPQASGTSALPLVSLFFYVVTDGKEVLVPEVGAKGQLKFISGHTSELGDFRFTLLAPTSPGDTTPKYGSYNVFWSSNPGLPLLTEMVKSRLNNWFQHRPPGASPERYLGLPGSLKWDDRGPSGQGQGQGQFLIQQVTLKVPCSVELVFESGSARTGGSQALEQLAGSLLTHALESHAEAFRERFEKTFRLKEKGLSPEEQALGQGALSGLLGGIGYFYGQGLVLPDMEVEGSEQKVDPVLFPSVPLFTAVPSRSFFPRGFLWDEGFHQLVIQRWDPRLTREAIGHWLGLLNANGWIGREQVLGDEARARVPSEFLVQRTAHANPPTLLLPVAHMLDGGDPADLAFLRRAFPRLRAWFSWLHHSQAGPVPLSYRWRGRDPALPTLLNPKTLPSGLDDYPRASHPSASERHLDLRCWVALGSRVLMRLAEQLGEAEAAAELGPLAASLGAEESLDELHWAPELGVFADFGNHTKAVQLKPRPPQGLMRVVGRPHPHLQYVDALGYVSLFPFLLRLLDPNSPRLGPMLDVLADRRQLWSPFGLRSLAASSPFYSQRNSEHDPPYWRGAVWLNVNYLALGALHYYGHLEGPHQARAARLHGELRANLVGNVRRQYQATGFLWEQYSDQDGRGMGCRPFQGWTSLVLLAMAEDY

[2] = replicate tests (Tables 2 and 3), two virus strains, two cell lines

For CCCCN1C[C@H](O)[C@@H](O)[C@H](O)[C@H]1CO [BuDNJ, N-n-butyl-deoxynojirimycin], the “galactose incorporation into the cells” value [1] was “substantially inhibited galactose incorporation into the cells at 1.0 mM or less”, the glucose utilization/inhibition [1] was “little or no effect” and the mannose utilization [1] was “inhibited mannose utilization”. For the same compound, the “^3H-Thymidine uptake into the cells” value [1] was “not affected by N-butyl-DNJ up to 2.0 mM”, the “HIV-2 (TCID)” value (HIV-2) was under 10 TCID and the “VIRUS TITER HIV-2” value (HIV-2) was 10. For the same compound, the “reduction of TCID titre of culture supernatants” value (HIV) was “negligible virus TCID titres”, the “reduction of the virus titer / yield of infectious HIV” value (HIV) was “over five logs” and the “effectiveness as an inhibitor of HIV compared with N-ethyl deoxynojirimycin” value (HIV; [2]) was “three log orders more effective”. For the same compound, the “effectiveness as an inhibitor of HIV compared with N-methyl-deoxynojirimycin” value (HIV; [2]) was “two log orders more effective” and the “glucosidase I inhibitory activity” value (glucosidase I) was “virtually identical”.
For CN1C[C@H](O)[C@@H](O)[C@H](O)[C@H]1CO [MeDNJ, N-methyl-deoxynojirimycin], the “galactose incorporation into the cells” value [1] was “only slightly inhibitory”, the glucose utilization/inhibition [1] was “inverted dose-response curve” and the mannose utilization [1] was “either stimulated incorporation or, conservatively, had no effect”. For the same compound, the “^3H-Thymidine uptake into the cells” value [1] was “inhibited incorporation at 1.0 mM”, the “HIV-2 (TCID)” value (HIV-2) was 10^2 TCID and the “VIRUS TITER HIV-2” value (HIV-2) was 10^2. For the same compound, the “reduction of TCID titre of culture supernatants” value (HIV) was “reduced the TCID only partially”, the “reduction of the virus titer / yield of infectious HIV” value (HIV) was “two to four log-order of reduction” and the “glucosidase I inhibitory activity” value (glucosidase I) was “virtually identical”.
